# Assay results published in ChEMBL document CHEMBL5604061, “ASAP - WNV NS2B-NS3 protease fluorescence dose response” (2024).
# pIC50: −log10 of the molar value. “And” between values parts separate entries of the source, which are not always exact repeats. Equal entries are not always repeated.
# Target: T1, NS3 (West Nile virus, UniProt K4FQI5)
# T1 sequence (K4FQI5 whole entry): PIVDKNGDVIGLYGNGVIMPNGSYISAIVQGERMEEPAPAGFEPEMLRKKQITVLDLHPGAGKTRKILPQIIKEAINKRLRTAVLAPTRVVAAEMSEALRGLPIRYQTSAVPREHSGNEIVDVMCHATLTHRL
# Assay: Functional biochemical assay to identify treatments for viral infectious disease that targets West Nile NS2B-NS3 protease. Utilizing a direct enzyme activity measurement method, reading the fluorescence intensity is used to characterize the relative potency of inhibitors as IC50.
# Parameters: species or system NY-99
row,SMILES,pIC50
1,O=C1c2c(O)ccc([N+](=O)[O-])c2C(=O)c2c([N+](=O)[O-])ccc(O)c21,< 4.00
2,N=C(N)NCCC[C@H](NC(=O)[C@H](Cc1ccc(CN)cc1)NC(=O)c1ccccc1)B(O)O,7.19 and 6.66
3,CCCCCC(=O)N[C@H](C(=O)NCc1cccc(CN)c1)c1ccc(OCc2ccccc2)cc1,4.14
4,CCCCCC(=O)N[C@H](C(=O)Nc1ccc2[nH]ncc2c1)c1ccc(OCc2ccccc2)cc1,< 4.00
5,CCCCCC(=O)N[C@H](C(=O)Nc1ccc(C(N)=O)cc1)c1ccc(OCc2ccccc2)cc1,< 4.00
6,NCc1ccc(-c2ncc(OCC3CCNCC3)nc2-c2ccc(-c3ccoc3)cc2)cc1,4.01
7,CCCC[C@H](NC(C)=O)C(=O)N[C@H](C(=O)NCc1ccc(C(N)=O)cc1)c1ccc(OCc2ccccc2)cc1,< 4.00
8,NCc1ccc(-c2ncc(OCC3CCNCC3)nc2-c2ccc(C3CCOCC3)cc2)cc1,< 4.00
9,CCCCCC(=O)N[C@H](C(=O)N1CCCCC1)c1ccc(OCc2ccccc2)cc1,< 4.00
10,O=C(Nc1ccc2c(c1)B(O)OC2)c1cccc(OCc2c(Cl)cccc2Cl)c1,< 4.00
11,O=C(Nc1ccc2c(c1)CNCC2)c1cc(Cl)cc2[nH]ncc12,4.58
12,CC(C)(C)c1cc(Br)cc(C(=O)Nc2ccc3c(c2)CNC3)c1,4.05
13,CN1Cc2ccc(NC(=O)c3cc(Cl)cc4[nH]ncc34)cc2C1,< 4.00
14,O=C(Nc1ccc2c(c1)CNC2)c1cccc(-c2cnco2)c1,4.42
15,O=C(Nc1ccc2c(c1)CNC2)c1cc(Br)cc2ccccc12,4.24
16,O=C(Nc1ccc2c(c1)CNC2)c1cc(Cl)cc2c1CCC2,4.64
17,O=C1Cc2c(cccc2C(=O)Nc2ccc3c(c2)CNC3)N1,5.21
18,CC(C)c1cc(Br)cc(C(=O)Nc2ccc3c(c2)CNC3)c1,4.03
19,O=C(Nc1cc(Cl)cc(C(=O)Nc2ccc3c(c2)CNC3)c1)OCc1ccccc1,4.75 and 4.31 and 4.60
20,O=C(Nc1ccc2c(c1)CNC2)c1cc(Cl)cc2ccncc12,5.01
21,NCc1cc(/C=C/C(=O)O)cc(NC(=O)c2cc(Cl)cc(NC(=O)OCc3ccccc3)c2)c1,4.07
22,O=C1Cc2c(cc(Br)cc2C(=O)Nc2ccc3c(c2)CNC3)N1,5.50
23,N=C(N)NCCc1ccccc1B(O)O,< 4.00
24,NCc1cccc(NC(=O)c2cc(Cl)cc3c2cnn3CC2CC2)c1,4.17
25,O=C(Nc1cc(Cl)cc([C@H](C#CCO)Nc2cccc(-c3nn[nH]n3)c2)c1)OCc1ccccc1,4.47
26,NCc1cccc(NC(=O)c2cc(Cl)cc(-n3cccc3)c2)c1,< 4.00

row,SMILES,pIC50
1,N=C(N)NCCc1ccc(OC(=O)Nc2ccccc2)cc1,< 4.00
2,O=C(Nc1ccc2c(c1)CNC2)c1cc(Cl)cc2cn[nH]c12,5.11
3,NCc1cccc([C@H]2C[C@@H]2c2cc(Cl)cc(NC(=O)OCc3ccccc3)c2)c1,4.73
4,N[C@H]1Cc2ccc(NC(=O)c3cc(Cl)cc(NC(=O)OCc4ccccc4)c3)cc2C1,4.45
5,N#C[C@H](Nc1cccc(-c2nn[nH]n2)c1)c1cc(Cl)cc(NC(=O)OCc2ccccc2)c1,4.54
6,O=C(Nc1ccc2c(c1)CNC2)c1cc(Cl)cc2[nH]ncc12,5.51
7,O=C(NS(=O)(=O)C1CC1)c1cc(Cl)ccc1NS(=O)(=O)c1ccc(Oc2ccccc2Cl)cc1,4.12
8,O=C(Nc1ccc2c(c1)CNC2)c1cc(Br)cc2[nH]c(=O)[nH]c12,5.33
9,N#C[C@H](Nc1ccc2c(c1)CNC2)c1cc(Cl)cc2[nH]ncc12,4.70
10,NCc1cccc(NC(=O)C[C@@H](NC(=O)OCc2ccccc2)c2ccc(OCc3ccccc3)cc2)c1,5.21
11,NCc1cccc(NC(=O)[C@@H](NC(=O)OCc2ccccc2)c2ccc(OCc3ccccc3)cc2)c1,5.16
12,O=C(Nc1cc(Cl)cc(C(=O)Nc2cccc([C@H]3C[C@H]3C(=O)O)c2)c1)OCc1ccccc1,4.09
13,Clc1cc([C@@H]2C[C@H]2c2cccc(C3CCNCC3)c2)c2cn[nH]c2c1,4.96
14,NCc1cccc(NC(=O)C[C@H](NC(=O)OCc2ccccc2)c2ccc(OCc3ccccc3)c(Br)c2)c1,5.06
15,NCc1cccc(NC(=O)c2cc(Cl)cc(CN)c2)c1,5.01
16,CCn1c(=O)c(N2CC[C@@H](CO)C2)nc2ccccc21,< 4.00
17,Cc1c(C(=O)Nc2cc(-c3cccnc3)ccn2)cc(C2CC2)n1C,4.89
18,NCc1cccc(NC(=O)[C@H](NC(=O)OCc2ccccc2)c2ccc(Br)c(Cl)c2)c1,5.18
19,NCCc1ccc([C@H]2C[C@@H]2c2cc(Cl)cc(NC(=O)OCc3ccccc3)c2)cc1,5.15
20,COc1cc(Cc2c(-c3ccc(F)cc3)noc2C)nc(N2CCNCC2)n1,4.17
21,c1ccc2c(CN3CCC(c4cscn4)CC3)c[nH]c2c1,< 4.00
22,Cc1nc2c(C(=O)Nc3ccc4c(c3)CNC4)cc(Cl)cc2[nH]1,< 4.91
23,N=C(N)Nc1ccc(NC(=O)Oc2ccccc2)cc1,< 4.00
24,N=C(N)Nc1ccc(OC(=O)Nc2ccccc2)cc1,< 4.00
25,CCOc1cccc(-c2ccc(S(=O)(=O)Nc3ccc(Cl)cc3C(=O)O)cc2)c1,4.90
26,NCCc1ccc(NC(=O)c2cc(Cl)cc(NC(=O)OCc3ccccc3)c2)cc1,4.80

row,SMILES,pIC50
1,O=C(O)c1cc(Oc2ccc(F)cc2)c(F)cc1NS(=O)(=O)c1ccc(Oc2ccccc2Cl)cc1,5.47
2,NCCc1cccc(NC(=O)c2cc(Cl)cc(NC(=O)OCc3ccccc3)c2)c1,4.63
3,c1ccc2sc(C3CCN(Cc4c[nH]c5ccccc45)CC3)nc2c1,< 4.00
4,N=C(N)NCCc1ccc(NC(=O)Oc2ccccc2)cc1,4.14
5,C=CC[C@H](Nc1cc(Cl)cc(NC(=O)OCc2ccccc2)c1)c1cccc(-c2nn[nH]n2)c1,4.84
6,CNC(=O)[C@H](Nc1cc(CN)cc(C(=O)O)c1)c1cc(Cl)cc(C2CC2)c1,5.83
7,CC(C)CNC(=O)c1cc(Cl)c(F)cc1NS(=O)(=O)c1ccc(Oc2ccccc2Cl)cc1,4.60
8,CCNC(=O)Nc1cc(Cl)cc(C(=O)Nc2ccc3c(c2)CNCCO3)c1,4.81
9,CC(C)CNC(=O)c1cc(Cl)ccc1NS(=O)(=O)c1ccc(Oc2ccccc2Cl)cc1,< 4.00
10,NCc1cccc(CNC(=O)[C@H](NC(=O)OCc2ccccc2)c2ccc(OCc3ccccc3)cc2)c1,4.88
11,C[C@@H](Oc1ccc(S(=O)(=O)Nc2ccc(Cl)cc2C(=O)O)cc1)c1ccccc1F,4.70
12,O=C(NC1CCOCC1)[C@H](Nc1ccc2c(c1)CNC2)c1cc(Cl)cc2[nH]ncc12,6.94
13,NCc1cccc(NC(=O)c2cc(Br)cc3[nH]ccc23)c1,< 4.00
14,O=C(O)c1cc2c(cc1NS(=O)(=O)c1ccc(Oc3ccccc3Cl)cc1)CCC2,4.78
15,CNC(=O)[C@H](Nc1cc(Cl)cc(NC(=O)OCc2ccccc2)c1)c1cccc(-c2nn[nH]n2)c1,< 4.00
16,O=C(Nc1ccc2c(c1)CNC2)c1cc(F)c2[nH]ccc2c1,4.70
17,CS(=O)(=O)NC(=O)c1cc(Cl)ccc1NS(=O)(=O)c1ccc(Oc2ccccc2Cl)cc1,4.13
18,OCC#C[C@H](Nc1ccc2c(c1)CNC2)c1cc(Cl)cc2[nH]ncc12,4.65
19,NCc1cccc(NC(=O)c2cc(Cl)cc(NC(=O)OCc3ccccc3)c2)c1,4.64
20,c1cc(C2CCN(Cc3c[nH]c4ccccc34)CC2)c2ccncc2c1,< 4.00
21,Cc1cccc(-c2nc3c(C(=O)Nc4ccc5c(c4)CNC5)cc(Cl)cc3[nH]2)c1O,4.76
22,CNC(=O)[C@H](Nc1cccc(CN)c1)c1cc(Cl)cc(NC(=O)OCc2ccccc2)c1,5.72
23,O=C(Nc1ccc2c(c1)CNC2)c1cccc2[nH]c(=O)[nH]c12,5.83
24,O=C(NCC(F)(F)F)c1cc(Cl)c(F)cc1NS(=O)(=O)c1ccc(Oc2ccccc2Cl)cc1,5.03
25,c1ccc2c(CN3CCC(c4c[nH]c5cccnc45)CC3)c[nH]c2c1,< 4.00
26,O=C(O)c1cc(Cl)c(F)cc1S(=O)(=O)Nc1ccc(Oc2ccccc2Cl)cc1,4.49

row,SMILES,pIC50
1,NCc1cccc(NC(=O)[C@H]2[C@H]3CCCCC[C@H]3[C@H]2NC(=O)OCc2ccccc2)c1,4.33
2,CCc1cc(C(=O)Nc2cccc(-n3nn[nH]c3=O)c2)sc1-c1ccc(Cl)cc1,4.70
3,CCn1c(=O)c(N2C[C@H]3CCS(=O)(=O)[C@H]3C2)nc2ccccc21,< 4.00
4,Cc1c(C(=O)Nc2cc(CCCN)ccn2)cc(C2CC2)n1C,4.23
5,Cc1cc(-c2ccc([C@@H](NC(=O)OCc3ccccc3)C(=O)Nc3cccc(CN)c3)cc2)cs1,5.47
6,O=C(O)c1cc(Cl)ccc1NS(=O)(=O)c1ccc(-c2ccc(F)cc2)cc1,4.53
7,CCOCCNC(=O)[C@H](Nc1ccc2c(c1)CNC2)c1cc(Cl)cc2[nH]ncc12,6.33
8,N=C(N)NCCc1cccc(B(O)O)c1,< 4.00
9,N=C(N)NCc1ccc(NC(=O)Oc2ccccc2)cc1,< 4.00
10,O=C(Nc1cc(Cl)cc(C(=O)Nc2ccc3c(c2)CCNC3)c1)OCc1ccccc1,4.31
11,N=C(N)NCc1ccc(OC(=O)Nc2ccccc2)cc1,< 4.00
12,CNC(=O)c1cc(Cl)c(F)cc1NS(=O)(=O)c1ccc(Oc2ccccc2Cl)cc1,4.51
13,NCc1cccc(NC(=O)[C@H](NC(=O)OCc2ccccc2)C2CCC(c3ccccc3)CC2)c1 (stereo partly specified),5.08
14,Cc1ccc(NC(=O)c2cc(Cl)cc(NC(=O)OCc3ccccc3)c2)cc1CN,4.22
15,NS(=O)(=O)c1ccc(C2CCN(Cc3c[nH]c4ccccc34)CC2)cc1,< 4.00
16,NCc1cc(Cl)cc(C(=O)Nc2ccc3c(c2)CNC3)c1,5.00
17,Cc1[nH]c2ccccc2c1CN1CCC(c2c[nH]c3ncccc23)CC1,< 4.00
18,N[C@H]1CCc2cc(NC(=O)c3cc(Cl)cc(NC(=O)OCc4ccccc4)c3)ccc21,4.35
19,Cc1[nH]c2ccccc2c1CN1CCC(c2nc3ccccc3s2)CC1,< 4.00
20,O=C(O)c1cc(Cl)ccc1S(=O)(=O)NC1CCN(c2nc(C3CC3)cc(C(F)(F)F)n2)CC1,4.31
21,CNC(=O)[C@H](Nc1cc(CN)cc(-c2nn[nH]n2)c1)c1cc(Cl)cc(C2CC2)c1,6.00
22,O=C(Nc1ccc(F)nc1)Oc1ccccc1,< 4.00
23,O=C(Nc1cc(Cl)cc(C(=O)Nc2cccc(-n3nn[nH]c3=O)c2)c1)OCc1ccccc1,4.48
